16 compounds from ChEMBL document CHEMBL4359921, “Discovery of potent 4-aminoquinoline hydrazone inhibitors of NRH:quinoneoxidoreductase-2 (NQO2)” (Eur J Med Chem, 2019) can be followed below.

For assay [1], the system named is SK-OV-3. Kind of assay: Cytotoxicity against human SKOV3 cells assessed as reduction in cell viability incubated for 24 hrs by MTT assay. The note with it: SK-OV-3, 24 h. On the technique in general: Tetrazolium dyes change colour on reduction, which living cells bring about.
For assay [2], the system named is SK-OV-3. Kind of assay: Cytotoxicity against human SKOV3 cells assessed as reduction in cell viability incubated for 96 hrs by MTT assay. The note with it: SK-OV-3, 96 h.
Assay [3] concerns SK-OV-3. Kind of assay: Cytotoxicity against human SKOV3 cells transfected with non-targeted vector assessed as reduction in cell viability incubated for 96 hrs in presence of doxycycline by MTT assay. The note with it: SK-OV-3, 96 h.
The test system of assay [4] is SK-OV-3. Kind of assay: Cytotoxicity against human SKOV3 cells transfected with shRNA assessed as reduction in cell viability incubated for 96 hrs in presence of doxycycline by MTT assay. The settings on record: SK-OV-3, 96 h.
Assay [5] concerns TOV112D. As to the kind of experiment: Cytotoxicity against human TOV112D cells transfected with empty vector assessed as reduction in cell viability incubated for 96 hrs by MTT assay.
Assay [6] concerns TOV112D. Kind of assay: Cytotoxicity against human TOV112D cells expressing NQO2 assessed as reduction in cell viability incubated for 96 hrs by MTT assay.
For assay [7], the target named is NAD(P)H dehydrogenase [quinone] 1 (Homo sapiens, UniProt P15559). As to the kind of experiment: Inhibition of recombinant human NQO1 expressed in Escherichia coli using DCPIP as substrate by spectrophotometry.
NAD(P)H dehydrogenase [quinone] 1, sequence (P15559 whole entry): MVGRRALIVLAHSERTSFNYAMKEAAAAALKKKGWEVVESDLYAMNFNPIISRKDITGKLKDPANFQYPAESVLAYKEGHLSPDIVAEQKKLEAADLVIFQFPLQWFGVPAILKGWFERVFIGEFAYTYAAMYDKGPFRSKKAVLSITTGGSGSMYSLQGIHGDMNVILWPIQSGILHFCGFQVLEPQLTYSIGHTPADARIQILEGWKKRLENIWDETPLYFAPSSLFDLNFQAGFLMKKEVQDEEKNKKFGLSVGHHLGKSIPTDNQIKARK

The IC50 is the point on the concentration scale where inhibition reaches its midpoint. Regarding `COc1ccc2nc(C)cc(N/N=C/c3cccc(OC)c3O)c2c1`, the IC50 with SK-OV-3 [1] is 2.1 µM; in the assay with SK-OV-3 [2] it was 2 µM; with SK-OV-3 [3] it was 2.7 µM; with SK-OV-3 [4], 2.78 µM; in the assay on TOV112D [5], 3.4 µM; in the assay with TOV112D [6] it was 3.77 µM.

As for `COc1ccc2nc(C)cc(N/N=C/c3ccccc3)c2c1`, the half-maximal inhibitory concentration (IC50) in the assay with SK-OV-3 [1] turned out to be 1.77 µM; in the assay with SK-OV-3 [2] it was 1.73 µM.

Regarding `COc1ccc2nc(C)cc(N/N=C/c3ccc(F)cc3)c2c1`, the IC50 in the assay on SK-OV-3 [1] and in the assay with SK-OV-3 [2] was 2.3 µM each time.

Regarding `COc1ccc2nc(C)cc(N/N=C/Cc3ccccc3)c2c1`, the IC50 entry is “Not Active” in assay [7]; 50 µM with SK-OV-3 [1]; 40.7 µM in the assay on SK-OV-3 [2]; 44.7 µM in the assay with SK-OV-3 [3]; 49.7 µM with SK-OV-3 [4]; 42.5 µM in the assay with TOV112D [5]. Moreover, the IC50 with TOV112D [6] turned out to be 41 µM.

Regarding `COc1ccc2nc(C)cc(N/N=C/c3ccc(O)cc3)c2c1`, the IC50 was 2.75 µM with SK-OV-3 [1]; 2.3 µM in the assay with SK-OV-3 [2]; 2.87 µM with SK-OV-3 [3]; 2.58 µM with SK-OV-3 [4]; 3.17 µM in the assay with TOV112D [5]; 2.98 µM in the assay on TOV112D [6].

For `COc1ccc2nc(-c3ccccc3)cc(N/N=C/c3c[nH]cn3)c2c1`, the IC50 amounted to 0.425 µM in assay [7] (read-out: IC50), 2.47 µM in the assay on SK-OV-3 [1] and 2.17 µM with SK-OV-3 [2].

Take `COc1ccc2nc(C)cc(NNC(=O)c3ccc(F)cc3)c2c1`: the concentration for half-maximal inhibition (IC50) entry is “Not Active” in assay [7]; over 100 µM in the assay with SK-OV-3 [1]; over 100 µM in the assay with SK-OV-3 [2]; over 100 µM in the assay with SK-OV-3 [3]; over 100 µM with SK-OV-3 [4]; 61.3 µM in the assay with TOV112D [5]. Further, the IC50 in the assay with TOV112D [6] came out at 57.3 µM.

Regarding `COc1ccc2nc(-c3ccccc3)cc(N/N=C/c3cccnc3)c2c1`, the IC50 result in assay [7] was “Not Active”; in the assay on SK-OV-3 [1] it was 2.8 µM; in the assay with SK-OV-3 [2], 2.2 µM.

As to `COc1ccc2nc(-c3ccccc3)cc(N/N=C/c3cccc(OC)c3O)c2c1`, the IC50 result in assay [7] is “Not Active”; in the assay with SK-OV-3 [1], 2.88 µM; in the assay with SK-OV-3 [2], 2.73 µM.

For the compound `COc1ccc2nc(C)cc(NN)c2c1`, the results for the IC50 in the assay on SK-OV-3 [1] and with SK-OV-3 [2] were 84 µM and 41 µM, respectively.

As to `COc1ccc2nc(-c3ccccc3)cc(N/N=C/c3ccc(N(C)C)cc3)c2c1`, the half-inhibitory concentration (IC50) in the assay on SK-OV-3 [1] worked out at 1.57 µM; in the assay with SK-OV-3 [2], 1.53 µM.

Regarding `COc1ccc2nc(C)cc(NNC(=O)c3ccccc3)c2c1`, the IC50 was 68.3 µM in the assay on SK-OV-3 [1] and 43.3 µM in the assay on SK-OV-3 [2].

For `COc1ccc2nc(C)cc(N/N=C/c3ccc(C(=O)O)cc3)c2c1`, the IC50 result in assay [7] was “Not Active”; in the assay with SK-OV-3 [1] it was over 100 µM; in the assay on SK-OV-3 [2], 70 µM; with SK-OV-3 [3], 65 µM; in the assay with SK-OV-3 [4] it was 61.3 µM; in the assay on TOV112D [5] it was over 100 µM. In addition, the IC50 with TOV112D [6] is over 100 µM.

Regarding `COc1ccc2nc(C)cc(N/N=C/c3c[nH]cn3)c2c1`, the concentration for half-maximal inhibition (IC50) in the assay on SK-OV-3 [1] worked out at 32 µM; in the assay with SK-OV-3 [2], 4.2 µM; in the assay on SK-OV-3 [3], 6.9 µM; in the assay on SK-OV-3 [4], 6.73 µM; with TOV112D [5] it was 3.65 µM; with TOV112D [6] it was 3.72 µM.

Take `Nc1c2ccccc2nc2ccccc12` [AMINACRINE]: the IC50 with SK-OV-3 [1] was determined as 5.43 µM; in the assay on SK-OV-3 [2], 2.78 µM; with SK-OV-3 [3], 2.53 µM; in the assay with SK-OV-3 [4] it was 2.57 µM; in the assay with TOV112D [5], 3.6 µM; in the assay on TOV112D [6], 3.15 µM.

Regarding `Oc1ccc(/C=C/c2cc(O)cc(O)c2)cc1` [RESVERATROL], the IC50 was determined as 91.7 µM with SK-OV-3 [1]; 36.3 µM in the assay with SK-OV-3 [2]; 29 µM in the assay with SK-OV-3 [3]; 39.7 µM in the assay with SK-OV-3 [4]; 10.7 µM in the assay on TOV112D [5]; 11 µM in the assay on TOV112D [6].
